Source: patent publication US20230242534A9, “INHIBITORS OF CYCLIN-DEPENDENT KINASE 7 AND USES THEREOF” (Dana-Farber Cancer Institute, Inc., priority 2019, published 2023)
Like-named read-outs stand apart in the source and are kept apart here.

Columns and labels:
[1] = target: T1, SET Human Serotonin Transporter (Homo sapiens, UniProt P31645); assay: 5-HT inhibition assay: Cerep SET Human Serotonin Transporter Binding (Antagonist Radioligand) Assay; settings: test compound 10 μM, ligand [3H]imipramine 2 nM, 60 min at RT
T1 construct: Cerep (Eurofins Discovery Services) 439
T1 sequence (P31645 whole entry): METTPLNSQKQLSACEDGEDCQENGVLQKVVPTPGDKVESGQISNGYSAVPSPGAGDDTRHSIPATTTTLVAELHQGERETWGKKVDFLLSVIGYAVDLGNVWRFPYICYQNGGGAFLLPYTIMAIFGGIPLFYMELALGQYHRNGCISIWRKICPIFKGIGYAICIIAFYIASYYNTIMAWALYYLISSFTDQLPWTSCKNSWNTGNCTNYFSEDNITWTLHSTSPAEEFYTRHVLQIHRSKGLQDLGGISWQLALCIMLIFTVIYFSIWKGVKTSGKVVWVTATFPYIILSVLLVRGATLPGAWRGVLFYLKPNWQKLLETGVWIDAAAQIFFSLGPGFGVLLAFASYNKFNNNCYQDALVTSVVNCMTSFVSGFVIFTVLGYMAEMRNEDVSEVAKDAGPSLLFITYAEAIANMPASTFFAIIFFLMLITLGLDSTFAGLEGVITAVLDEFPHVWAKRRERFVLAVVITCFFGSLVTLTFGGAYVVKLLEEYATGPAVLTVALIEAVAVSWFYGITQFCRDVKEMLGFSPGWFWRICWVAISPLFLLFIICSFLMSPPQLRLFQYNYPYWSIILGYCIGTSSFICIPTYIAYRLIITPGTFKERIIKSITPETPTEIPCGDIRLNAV
Method: The 5-HT inhibition assay was performed according to the Cerep SET Human Serotonin Transporter Binding (Antagonist Radioligand) Assay, such as the assay described in www.eurofinsdiscoveryservices.com/catalogmanagement/viewitem//439, accessed Jul. 22, 2019. In some experiments, the assay information is as shown below:
Ligand concentration: 2 nM; Non specific: imipramine (10 μM);
Incubation: 60 min at RT;
Control inhibitor: imipramine; and Test compound concentration: 10 μM. Exemplary results are presented as 5-HT % inhibition at 10 μM of compound for compounds of the disclosure in Table 1 and for comparator compounds in Table 2.

CDK7: cyclin H and MNAT1 = target: T2, CDK7: cyclin H and MNAT1 (Homo sapiens, UniProt P50613); assay: Invitrogen CDK7 assay (kinase inhibition); type: biochemical; settings: co-factors cyclin H and MNAT1, read-out: IC50 against CDK7
T2 construct: purchased Invitrogen
T2 sequence (P50613 whole entry): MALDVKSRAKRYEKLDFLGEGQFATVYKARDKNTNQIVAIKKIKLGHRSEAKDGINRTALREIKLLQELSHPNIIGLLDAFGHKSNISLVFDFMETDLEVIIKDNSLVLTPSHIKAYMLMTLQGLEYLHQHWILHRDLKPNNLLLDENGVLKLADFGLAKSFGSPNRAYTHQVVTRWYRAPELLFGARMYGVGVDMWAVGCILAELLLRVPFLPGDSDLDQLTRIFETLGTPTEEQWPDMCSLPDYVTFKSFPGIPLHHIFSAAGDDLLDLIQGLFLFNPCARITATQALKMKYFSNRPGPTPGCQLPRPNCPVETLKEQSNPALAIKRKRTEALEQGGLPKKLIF
T2 sequence (P51946 whole entry partner): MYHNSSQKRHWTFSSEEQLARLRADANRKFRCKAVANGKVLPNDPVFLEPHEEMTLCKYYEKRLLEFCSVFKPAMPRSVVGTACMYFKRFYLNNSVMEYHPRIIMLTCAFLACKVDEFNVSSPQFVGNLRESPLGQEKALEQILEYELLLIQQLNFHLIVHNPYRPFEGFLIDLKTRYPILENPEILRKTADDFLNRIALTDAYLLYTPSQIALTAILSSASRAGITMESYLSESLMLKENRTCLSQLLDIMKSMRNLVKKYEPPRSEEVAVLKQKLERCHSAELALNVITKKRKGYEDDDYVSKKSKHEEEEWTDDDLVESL
T2 sequence (P51948 whole entry partner): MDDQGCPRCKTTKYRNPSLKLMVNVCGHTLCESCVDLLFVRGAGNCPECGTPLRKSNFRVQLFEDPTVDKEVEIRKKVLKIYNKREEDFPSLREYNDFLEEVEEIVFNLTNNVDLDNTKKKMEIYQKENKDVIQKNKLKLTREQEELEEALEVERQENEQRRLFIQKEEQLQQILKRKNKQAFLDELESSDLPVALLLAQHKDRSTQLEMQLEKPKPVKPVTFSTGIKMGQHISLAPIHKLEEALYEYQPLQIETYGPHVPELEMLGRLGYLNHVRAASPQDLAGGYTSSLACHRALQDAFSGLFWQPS
Method: Compounds were assayed using Invitrogen CDK7 assay against a variety of kinases. Exemplary results are presented as IC50 values for compounds of the disclosure in Table 1 and for comparator compounds in Table 2. In Tables 1 and 2, “A” represents an IC50 value of less than 100 nM, “B” represents an IC50 value of greater than or equal to 100 nM and less than 1 μM, and “C” represents an IC50 value of greater than or equal to 1 μM. The co-factors used for each kinase in the assays were as follows: CDK7: cyclin H and MNAT1; CDK2: cyclin A; CDK9: cyclin T1.

[2] = Table 1, compounds of the disclosure

`C=CC(=O)Nc1cccc(C(=O)Nc2ccc(Nc3n[nH]c4c3CN(C(=O)N[C@H](CN(C)C)c3ccccc3)C4(C)C)cc2)c1` [Compound C-1] was tested, and the inhibition at 10 µM ([1]; Table 2, comparator compounds) was 98.3% and the IC50 (CDK7: cyclin H and MNAT1; Table 2, comparator compounds) was less than 100 nM.

Compound `C=CC(=O)Nc1ccc(C(=O)Nc2n[nH]c3c2CN(C(=O)N[C@H](CN(C)C)c2ccccc2)C32CC2)cc1` [Compound C-2] has an inhibition at 10 µM ([1]; Table 2, comparator compounds) of 95.3% and an IC50 (CDK7: cyclin H and MNAT1; Table 2, comparator compounds) of less than 100 nM.

For `C=CC(=O)Nc1cccc(Nc2n[nH]c3c2CN(C(=O)N[C@H](CN(C)C)c2ccccc2)C3(C)C)c1` [Compound C-3], the inhibition at 10 µM ([1]; Table 2, comparator compounds) was 98.2% and the IC50 (CDK7: cyclin H and MNAT1; Table 2, comparator compounds) was less than 100 nM.

For `C=CC(=O)Nc1ccc(C(=O)N2CCC(Nc3n[nH]c4c3CN(C(=O)N[C@H](CN(C)C)c3ccccc3)C4(C)C)CC2)cc1` [Compound C-4], the inhibition at 10 µM ([1]; Table 2, comparator compounds) was 96.4% and the IC50 (CDK7: cyclin H and MNAT1; Table 2, comparator compounds) was less than 100 nM.

For `C=CC(=O)N1CCC[C@H](C(=O)Nc2n[nH]c3c2CN(C(=O)N[C@H](CN(C)C)c2ccccc2)C3(C)C)C1` [Compound C-5], the inhibition at 10 µM ([1]; Table 2, comparator compounds) was 94.3% and the IC50 (CDK7: cyclin H and MNAT1; Table 2, comparator compounds) was less than 100 nM.

For `C=CC(=O)Nc1ccc(C(=O)Nc2cccc(C(=O)Nc3n[nH]c4c3CN(C(=O)N[C@H](CN(C)C)c3ccccc3)C4(C)C)c2)cc1` [Compound C-6], the inhibition at 10 µM ([1]; Table 2, comparator compounds) was 99.6% and the IC50 (CDK7: cyclin H and MNAT1; Table 2, comparator compounds) was less than 100 nM.

Compound `C=CC(=O)Nc1ccc(C(=O)Nc2n[nH]c3c2CN(C(=O)N[C@H](CN(C)C)c2ccccc2)[C@@H]3C(C)C)cc1` [Compound C-7] has an inhibition at 10 µM ([1]; Table 2, comparator compounds) of 74.5% and an IC50 (CDK7: cyclin H and MNAT1; Table 2, comparator compounds) of less than 100 nM.

With `C=CC(=O)Nc1ccc(C(=O)Nc2cccc(Nc3n[nH]c4c3CN(C(=O)N[C@H](CN(C)C)c3ccccc3)C4(C)C)c2)cc1` [Compound C-8] the inhibition at 10 µM ([1]; Table 2, comparator compounds) was 98% and the IC50 (CDK7: cyclin H and MNAT1; Table 2, comparator compounds) was less than 100 nM.

With `C=CC(=O)Nc1ccc(C(=O)Nc2n[nH]c3c2CN(C(=O)N[C@H](CN(C)C)c2ccccc2)C3(C)C)nc1` [Compound C-10] the inhibition at 10 µM ([1]; Table 2, comparator compounds) was 98.3% and the IC50 (CDK7: cyclin H and MNAT1; Table 2, comparator compounds) was less than 100 nM.

`C=CC(=O)Nc1ccc(C(=O)Nc2nn(C)c3c2CN(C(=O)N[C@H](CN(C)C)c2ccccc2)C3(C)C)cc1` [Compound I-1, (S)-3-(4-acrylamidobenzamido)-N-(2-(dimethylamino)-1-phenylethyl)-1,6,6-trimethyl-4,6-dihydropyrrolo[3,4-c]pyrazole-5(1H)-carboxamide] was tested, and the inhibition at 10 µM ([1]; Table 1) was 26.8% and the IC50 (CDK7: cyclin H and MNAT1; [2]) was less than 100 nM.

Work on `C=CC(=O)Nc1ccc(C(=O)Nc2nn(C(F)F)c3c2CN(C(=O)N[C@H](CN(C)C)c2ccccc2)C3(C)C)cc1` [Compound I-5, (S)-3-(4-acrylamidobenzamido)-1-(difluoromethyl)-N-(2-(dimethylamino)-1-phenylethyl)-6,6-dimethyl-4,6-dihydropyrrolo[3,4-c]pyrazole-5(1H)-carboxamide] yielded an inhibition at 10 µM ([1]; Table 1) of 81.4% and an IC50 (CDK7: cyclin H and MNAT1; [2]) of less than 100 nM.

Work on `C=CC(=O)Nc1ccc(C(=O)Nc2nn(C)c3c2CN(C(=O)N[C@H](CN(C)C)c2ccccc2)C3(C)C)nc1` [Compound I-8, (S)-3-(5-acrylamidopicolinamido)-N-(2-(dimethylamino)-1-phenylethyl)-1,6,6-trimethyl-4,6-dihydropyrrolo[3,4-c]pyrazole-5(1H)-carboxamide] yielded an inhibition at 10 µM ([1]; Table 1) of 50.6% and an IC50 (CDK7: cyclin H and MNAT1; [2]) of 100 to 1000 nM.

Work on `C=CC(=O)Nc1ccc(C(=O)Nc2nn(C(F)F)c3c2CN(C(=O)N[C@H](CN(C)C)c2ccccc2)C3(C)C)nc1` [Compound I-33, (S)-3-(5-acrylamidopicolinamido)-1-(difluoromethyl)-N-(2-(dimethylamino)-1-phenylethyl)-6,6-dimethyl-4,6-dihydropyrrolo[3,4-c]pyrazole-5(1H)-carboxamide] yielded an inhibition at 10 µM ([1]; Table 1) of 88.8% and an IC50 (CDK7: cyclin H and MNAT1; [2]) of less than 100 nM.

`C=CC(=O)Nc1ccc(C(=O)Nc2n[nH]c3c2CN(C(=O)N[C@H](CN(C)C)c2ccccc2)C3(C)C)cc1C(F)(F)F` [II-2] showed an inhibition at 10 µM ([1]; Table 2, comparator compounds) of 98.1% and an IC50 (CDK7: cyclin H and MNAT1; Table 2, comparator compounds) of less than 100 nM.
